This is an account of results in patent US4771055A, “7-[[3-(aminomethyl)-3-alkyl]-1-pyrrolidinyl]-quinoline-carboxylic acids” (Warner-Lambert Company, priority 1987, dated 1988).

Assay [1] relates to E. coli, P. aerug., S. aureus, S. pyog. As to the kind of experiment: Acute mouse protection test, oral versus subcutaneous activity over all organisms. It is filed as in vivo, mice. The conditions noted are these: for PO/SC Ratio: ratio of PD50 PO to PD50 SC over the four organisms, mice. The method, then:
(§1) The advantage of the compounds of the present invention has been observed when tested orally and compared to a standard quinolone where the 7-position contains a corresponding 3-aminomethylpyrrolidinyl group without the additional 3-alkyl or cycloalkyl substituent.
(§2) Therapeutic activities of the compounds were compared to acute mouse protection tests in which 18- to 22-g female Charles River CD-1 mice were used. Oral or subcutaneous doses in twofold rising incremental series were administered concurrently with bacterial challenge. Challenges were accomplished by the intraperitoneal injection of an estimated 100 medial lethal doses in 0.5 ml volumes of 5% hog gastric mucin or tryptic soy broth. Generally, >90% of the untreated controls died within 48 to 72 hours. Final survival percentages, obtained after four to seven days of observation among groups of 8 to 16 mice, were pooled and used to estimate median protective doses (PD50) by the log-probit method. Ideally a PO/SC ratio for a therapeutically relevant antibacterial should be ≤5. Table 2 indicates the improvement in PO/SC ratio.

Assay [2] has as its system Streptococcus faecalis MGH-2. As to the kind of experiment: In vitro antibacterial activity, MIC, microtitration dilution method. It is filed as cell-based. The note with it: Enterococcus faecalis, MGH2, read-out: Minimal Inhibitory Concentration MIC. The text has this:
(§3) The compounds of the invention display potent antibacterial activity against both gram-positive and -negative bacteria when tested by the microtitration dilution method as described in Heifetz, et al, Antimicr. Agents & Chemoth., 6, 124 (1974), which is incorporated herein by reference.

The subject of assay [3] is Pseudomonas aeruginosa UI-18. Described as above. The note with it: UI18, read-out: Minimal Inhibitory Concentration MIC. Format: cell-based.
Source text: as §3

The subject of the next assay is Proteus rettgeri M 1771. The assay is described as above. It is filed as cell-based. The note with it: Providencia rettgeri, M1771, read-out: Minimal Inhibitory Concentration MIC.
Source text: as §3

In assay [4] the test system is Streptococcus pyogenes C-203. The description is as above. Format: cell-based. The conditions noted are these: C203, read-out: Minimal Inhibitory Concentration MIC.
Source text: as §3

Assay [5] has as its system Enterobacter cloacae MA 2646. Described as above. The conditions noted are these: MA2646, read-out: Minimal Inhibitory Concentration MIC. It is filed as cell-based.
Source text: as §3

Assay [6] relates to Streptococcus pneumoniae SV-1. Described as above. Format: cell-based. The note with it: SV1, read-out: Minimal Inhibitory Concentration MIC.
Source text: as §3

Assay [7] deals with Staphylococcus aureus H 228. Described as above. It is filed as cell-based. The conditions noted are these: H228, read-out: Minimal Inhibitory Concentration MIC.
Source text: as §3

The subject of another assay is Escherichia coli Vogel. The description is as above. Format: cell-based. The conditions noted are these: read-out: Minimal Inhibitory Concentration MIC.
Source text: as §3

Assay [8] deals with Staphylococcus aureus UC-76. The assay is described as above. It is filed as cell-based. The conditions noted are these: UC76, read-out: Minimal Inhibitory Concentration MIC.
Source text: as §3

Assay [9] relates to Klebsiella pneumoniae MGH-2. The description is as above. The note with it: MGH2, read-out: Minimal Inhibitory Concentration MIC. Format: cell-based.
Source text: as §3

In the next assay the test system is S. pyog. As to the kind of experiment: Acute mouse protection test (PD50). It is filed as in vivo. The conditions noted are these: mice, read-out: Protective Dose 50% PD50. The method, then: as §1, §2
A further assay concerns P. aerug. As to the kind of experiment: Acute mouse protection test (PD50). It is filed as in vivo. The note with it: mice, read-out: Protective Dose 50% PD50. On the procedure: as §1, §2
In a further assay the test system is E. coli. As to the kind of experiment: Acute mouse protection test (PD50). Format: in vivo. The conditions noted are these: Escherichia coli, mice, read-out: Protective Dose 50% PD50. On the procedure:
as §1, §2

For another assay, the system named is S. aureus. As to the kind of experiment: Acute mouse protection test (PD50). Format: in vivo. The note with it: Staphylococcus aureus, mice, read-out: Protective Dose 50% PD50. The method, then:
as §1, §2

The subject of assay [10] is gram-positive and -negative bacteria. As to the kind of experiment: In vitro antibacterial activity, microtitration dilution method (overall). It is filed as cell-based. The conditions noted are these: comparison with Compound A.
Source text: as §3

Values after ≈ are worked out from the molar mass of the structure shown. Read-outs that look alike come from different tables or passages of the source.

Consider `NCC1CCN(c2c(F)cc3c(=O)c(C(=O)O)cn(C4CC4)c3c2F)C1` (stereo not shown) [Compound A, 7-[3-(aminomethyl)-1-pyrrolidinyl]-1-cyclopropyl-6,8-difluoro-1,4-dihydro-4-oxo-3-quinolinecarboxylic acid, reference compound], for which the “PO/SC Ratio” value in assay [1] is given as at least 10. The MIC in assay [2] was 0.1 µg/mL (≈ 0.275 µM); in assay [3] it was 0.8 µg/mL (≈ 2.2 µM); in the assay on Proteus rettgeri M 1771, 0.8 µg/mL (≈ 2.2 µM); in assay [4], 0.012 µg/mL (≈ 0.033 µM); in [5], 0.8 µg/mL (≈ 2.2 µM); in assay [6], 12 ng/mL (≈ 0.033 µM). Moreover, the MIC in [7] worked out at 0.1 µg/mL (≈ 0.275 µM); in the assay with Escherichia coli Vogel, 0.2 µg/mL (≈ 0.55 µM); in assay [8], 0.013 µg/mL (≈ 0.0358 µM); in assay [9], 0.4 µg/mL (≈ 1.1 µM). In addition, the ED50 in the assay on S. pyog. (PO) was 4 mg/kg; in the assay with S. pyog. (SC), 0.4 mg/kg; with P. aerug. (PO), above 100 mg/kg; in the assay on P. aerug. (SC), 3 mg/kg; in the assay with E. coli (PO), 13 mg/kg; in the assay on E. coli (SC), 1 mg/kg. Also, the ED50 was determined as 10 mg/kg in the assay on S. aureus (PO) and 1 mg/kg in the assay on S. aureus (SC).
As for `CC1(CN)CCN(c2c(F)cc3c(=O)c(C(=O)O)cn(C4CC4)c3c2F)C1` (stereo not shown) [Example 1, 7-[[3-(Aminomethyl)-3-methyl]-1-pyrrolidinyl]-1-cyclopropyl-6,8-difluoro-1,4-dihydro-4-oxo-3-quinolinecarboxylic acid], the “oral activity in mice compared to Compound A” value in assay [1] (PD50, mouse protection, comparison with Compound A) was “greater oral activity in mice”. In assay [1], the “PO/SC Ratio” value was at most 3. Also, the MIC in [2] is 0.013 µg/mL (≈ 0.0344 µM); in assay [3] it was 0.4 µg/mL (≈ 1.06 µM); in the assay with Proteus rettgeri M 1771 it was 0.2 µg/mL (≈ 0.53 µM); in [4] it was 0.025 µg/mL (≈ 0.0662 µM); in [5], 0.025 µg/mL (≈ 0.0662 µM); in assay [6], 6 ng/mL (≈ 0.0159 µM). The MIC in [7] was 0.013 µg/mL (≈ 0.0344 µM); in the assay on Escherichia coli Vogel, 0.05 µg/mL (≈ 0.132 µM); in [8], at most 0.003 µg/mL; in assay [9], 0.1 µg/mL (≈ 0.265 µM). Also, the ED50 with S. pyog. (PO) came to 9 mg/kg; in the assay with S. pyog. (SC), 3 mg/kg; with P. aerug. (PO), 38 mg/kg; with P. aerug. (SC), 18 mg/kg; in the assay on E. coli (PO), 2 mg/kg; in the assay with E. coli (SC), 1 mg/kg. For the same compound, the results for the ED50 in the assay on S. aureus (PO) and in the assay on S. aureus (SC) were 5 mg/kg and 2 mg/kg, respectively. Besides, the “in vitro activity compared to Compound A” value in [10] is “comparable in vitro activity”.
`CC1(CN)CCN(c2c(F)c(N)c3c(=O)c(C(=O)O)cn(C4CC4)c3c2F)C1` (stereo not shown) [Example 2, 5-Amino-7-[[3-(aminomethyl)-3-methyl]-1-pyrrolidinyl]-1-cyclopropyl-6,8-difluoro-1,4-dihydro-4-oxo-3-quinolinecarboxylic acid]: the MIC in assay [2] was 0.025 µg/mL (≈ 0.0637 µM); in assay [3], 0.8 µg/mL (≈ 2.04 µM); in the assay on Proteus rettgeri M 1771, 0.4 µg/mL (≈ 1.02 µM); in assay [4], 0.013 µg/mL (≈ 0.0331 µM); in [5], 0.1 µg/mL (≈ 0.255 µM); in assay [6], at most 3 ng/mL. The MIC in [7] was 0.013 µg/mL (≈ 0.0331 µM); in the assay on Escherichia coli Vogel, 0.1 µg/mL (≈ 0.255 µM); in assay [8], at most 0.003 µg/mL; in assay [9], 0.1 µg/mL (≈ 0.255 µM).
For `CC1(CN)CCN(c2nc3c(cc2F)c(=O)c(C(=O)O)cn3C2CC2)C1` (stereo not shown) [Example 3, 7-[[3-(Aminomethyl)-3-methyl]-1-pyrrolidinyl]-1-cyclopropyl-6-fluoro-1,4-dihydro-4-oxo-1,8-naphthyridine-3-carboxylic acid], the MIC in assay [2] worked out at 0.05 µg/mL (≈ 0.139 µM); in [3] it was 0.8 µg/mL (≈ 2.22 µM); in the assay with Proteus rettgeri M 1771 it was 0.8 µg/mL (≈ 2.22 µM); in [4], 0.05 µg/mL (≈ 0.139 µM); in [5], 0.1 µg/mL (≈ 0.277 µM); in assay [6], 25 ng/mL (≈ 0.0694 µM). For the same compound, the MIC in assay [7] stood at 0.05 µg/mL (≈ 0.139 µM); in the assay on Escherichia coli Vogel, 0.4 µg/mL (≈ 1.11 µM); in [8], 0.013 µg/mL (≈ 0.0361 µM); in assay [9], 0.2 µg/mL (≈ 0.555 µM).
Consider `CC1(CN)CCN(c2c(F)cc3c(=O)c(C(=O)O)cn(C4CC4)c3c2Cl)C1` (stereo not shown) [Example 4, 7-[3-(Aminomethyl)-3-methyl-1-pyrrolidinyl]-8-chloro-1-cyclopropyl-6-fluoro-1,4-dihydro-4-oxo-3-quinolinecarboxylic acid], for which the MIC in [2] was 0.013 µg/mL (≈ 0.033 µM); in assay [3], 0.2 µg/mL (≈ 0.508 µM); in the assay with Proteus rettgeri M 1771, 0.1 µg/mL (≈ 0.254 µM); in [4], 0.013 µg/mL (≈ 0.033 µM); in assay [5], 0.05 µg/mL (≈ 0.127 µM); in assay [6], at most 3 ng/mL. Also, the MIC was 0.013 µg/mL (≈ 0.033 µM) in [7], 0.025 µg/mL (≈ 0.0635 µM) in the assay on Escherichia coli Vogel, at most 0.003 µg/mL in assay [8] and 0.05 µg/mL (≈ 0.127 µM) in assay [9].
